From publication PMC9067983, “Identification of highly selective type II kinase inhibitors with chiral peptidomimetic tails” (Journal of Enzyme Inhibition and Medicinal Chemistry, 2022)
Where a SMILES comes first, the peptide text is derived from it. [ ]: non-standard residue; d: D form. The star is where a group is joined. X1 = Cc1ccc(Nc2ncc3c(n2)N(C)C(=O)N(c2cc(C(=O)*)ccc2C)C3)cn1; Aib = CC(C)(N)C(=O)O

Tests used:
Test in all cases: kinase selectivity profiling
Assay type in all cases: biochemical
Conditions in all cases: 10µM ATP, read-out: % inhibition (relative to DMSO)
Fgr = molecular target: T1, Fgr (Homo sapiens, UniProt P09769)
T1 construct: purchased Reaction Biology Corp
Experimental: (§1) Full panel kinase profiling and kinase IC50 measurement were performed by using Reaction Biology Corp. (San Diego, USA).

EPHB3 = molecular target: T2, EPHB3 (Homo sapiens, UniProt P54753)
T2 construct: purchased Reaction Biology Corp
Experimental: as §1

YES/YES1 = molecular target: T3, YES/YES1 (Homo sapiens, UniProt P07947)
T3 construct: purchased Reaction Biology Corp
Experimental: as §1

TLK2 = molecular target: T4, TLK2 (Homo sapiens, UniProt Q86UE8)
T4 construct: purchased Reaction Biology Corp
Experimental: as §1

CDK19/cyclin C = molecular target: T5, CDK19/cyclin C (Homo sapiens, UniProt Q9BWU1)
T5 construct: purchased Reaction Biology Corp
Experimental: as §1

JNK3 = molecular target: T6, JNK3 (Homo sapiens, UniProt P53779)
T6 construct: purchased Reaction Biology Corp
Experimental: as §1

GRK4 = molecular target: T7, GRK4 (Homo sapiens, UniProt P32298)
T7 construct: purchased Reaction Biology Corp
Experimental: as §1

CK1a1 = molecular target: T8, CK1a1 (Homo sapiens, UniProt P48729)
T8 construct: purchased Reaction Biology Corp
Experimental: as §1

NEK7 = molecular target: T9, NEK7 (Homo sapiens, UniProt Q8TDX7)
T9 construct: purchased Reaction Biology Corp
Experimental: as §1

c-Kit = molecular target: T10, c-Kit (Homo sapiens, UniProt P10721)
T10 construct: purchased Reaction Biology Corp
Experimental: as §1

CK1g3 = molecular target: T11, CK1g3 (Homo sapiens, UniProt Q9Y6M4)
T11 construct: purchased Reaction Biology Corp
Experimental: as §1

KSR1 = molecular target: T12, KSR1 (Homo sapiens, UniProt Q8IVT5)
T12 construct: purchased Reaction Biology Corp
Experimental: as §1

NEK3 = molecular target: T13, NEK3 (Homo sapiens, UniProt P51956)
T13 construct: purchased Reaction Biology Corp
Experimental: as §1

STK32C/YANK3 = molecular target: T14, STK32C/YANK3 (Homo sapiens, UniProt Q86UX6)
T14 construct: purchased Reaction Biology Corp
Experimental: as §1

SNARK/NUAK2 = molecular target: T15, SNARK/NUAK2 (Homo sapiens, UniProt Q9H093)
T15 construct: purchased Reaction Biology Corp
Experimental: as §1

p70S6Kb/RPS6KB2 = molecular target: T16, p70S6Kb/RPS6KB2 (Homo sapiens, UniProt Q9UBS0)
T16 construct: purchased Reaction Biology Corp
Experimental: as §1

BRSK2 = molecular target: T17, BRSK2 (Homo sapiens, UniProt Q8IWQ3)
T17 construct: purchased Reaction Biology Corp
Experimental: as §1

CAMK4 = molecular target: T18, CAMK4 (Homo sapiens, UniProt Q16566)
T18 construct: purchased Reaction Biology Corp
Experimental: as §1

CDC7/DBF4 = molecular target: T19, CDC7/DBF4 (Homo sapiens, UniProt O00311)
T19 construct: purchased Reaction Biology Corp
Experimental: as §1

MEKK3 = molecular target: T20, MEKK3 (Homo sapiens, UniProt Q99759)
T20 construct: purchased Reaction Biology Corp
Experimental: as §1

ROCK1 = molecular target: T21, ROCK1 (Homo sapiens, UniProt Q13464)
T21 construct: purchased Reaction Biology Corp
Experimental: as §1

DAPK2 = molecular target: T22, DAPK2 (Homo sapiens, UniProt Q9UIK4)
T22 construct: purchased Reaction Biology Corp
Experimental: as §1

IKKe/IKBKE = molecular target: T23, IKKe/IKBKE (Homo sapiens, UniProt Q14164)
T23 construct: purchased Reaction Biology Corp
Experimental: as §1

CAMKK2 = molecular target: T24, CAMKK2 (Homo sapiens, UniProt Q96RR4)
T24 construct: purchased Reaction Biology Corp
Experimental: as §1

MNK2 = molecular target: T25, MNK2 (Homo sapiens, UniProt Q9HBH9)
T25 construct: purchased Reaction Biology Corp
Experimental: as §1

ALK3/BMPR1A = molecular target: T26, ALK3/BMPR1A (Homo sapiens, UniProt P36894)
T26 construct: purchased Reaction Biology Corp
Experimental: as §1

CDK1/cyclin E = molecular target: T27, CDK1/cyclin E (Homo sapiens, UniProt P06493)
T27 construct: purchased Reaction Biology Corp
Experimental: as §1

LKB1 = molecular target: T28, LKB1 (Homo sapiens, UniProt Q15831)
T28 construct: purchased Reaction Biology Corp
Experimental: as §1

PKCmu/PRKD1 = molecular target: T29, PKCmu/PRKD1 (Homo sapiens, UniProt Q15139)
T29 construct: purchased Reaction Biology Corp
Experimental: as §1

DDR1 = molecular target: T30, DDR1 (Homo sapiens, UniProt Q08345)
T30 construct: purchased Reaction Biology Corp
Experimental: as §1

PLK4/SAK = molecular target: T31, PLK4/SAK (Homo sapiens, UniProt O00444)
T31 construct: purchased Reaction Biology Corp
Experimental: as §1

PIM2 = molecular target: T32, PIM2 (Homo sapiens, UniProt Q9P1W9)
T32 construct: purchased Reaction Biology Corp
Experimental: as §1

MYLK4 = molecular target: T33, MYLK4 (Homo sapiens, UniProt Q86YV6)
T33 construct: purchased Reaction Biology Corp
Experimental: as §1

PIM1 = molecular target: T34, PIM1 (Homo sapiens, UniProt P11309)
T34 construct: purchased Reaction Biology Corp
Experimental: as §1

PKG2/PRKG2 = molecular target: T35, PKG2/PRKG2 (Homo sapiens, UniProt Q13237)
T35 construct: purchased Reaction Biology Corp
Experimental: as §1

MKK6 = molecular target: T36, MKK6 (Homo sapiens, UniProt P52564)
T36 construct: purchased Reaction Biology Corp
Experimental: as §1

CDK16/cyclin Y (PCTAIRE) = molecular target: T37, CDK16/cyclin Y (PCTAIRE) (Homo sapiens, UniProt Q00536)
T37 construct: purchased Reaction Biology Corp
Experimental: as §1

PKG1b = molecular target: T38, PKG1b (Homo sapiens, UniProt Q13976)
T38 construct: purchased Reaction Biology Corp
Experimental: as §1

IRR/INSRR = molecular target: T39, IRR/INSRR (Homo sapiens, UniProt P14616)
T39 construct: purchased Reaction Biology Corp
Experimental: as §1

AXL = molecular target: T40, AXL (Homo sapiens, UniProt P30530)
T40 construct: purchased Reaction Biology Corp
Experimental: as §1

MSK2/RPS6KA4 = molecular target: T41, MSK2/RPS6KA4 (Homo sapiens, UniProt O75676)
T41 construct: purchased Reaction Biology Corp
Experimental: as §1

GSK3a = molecular target: T42, GSK3a (Homo sapiens, UniProt P49840)
T42 construct: purchased Reaction Biology Corp
Experimental: as §1

T35 sequence (Q13237 whole entry): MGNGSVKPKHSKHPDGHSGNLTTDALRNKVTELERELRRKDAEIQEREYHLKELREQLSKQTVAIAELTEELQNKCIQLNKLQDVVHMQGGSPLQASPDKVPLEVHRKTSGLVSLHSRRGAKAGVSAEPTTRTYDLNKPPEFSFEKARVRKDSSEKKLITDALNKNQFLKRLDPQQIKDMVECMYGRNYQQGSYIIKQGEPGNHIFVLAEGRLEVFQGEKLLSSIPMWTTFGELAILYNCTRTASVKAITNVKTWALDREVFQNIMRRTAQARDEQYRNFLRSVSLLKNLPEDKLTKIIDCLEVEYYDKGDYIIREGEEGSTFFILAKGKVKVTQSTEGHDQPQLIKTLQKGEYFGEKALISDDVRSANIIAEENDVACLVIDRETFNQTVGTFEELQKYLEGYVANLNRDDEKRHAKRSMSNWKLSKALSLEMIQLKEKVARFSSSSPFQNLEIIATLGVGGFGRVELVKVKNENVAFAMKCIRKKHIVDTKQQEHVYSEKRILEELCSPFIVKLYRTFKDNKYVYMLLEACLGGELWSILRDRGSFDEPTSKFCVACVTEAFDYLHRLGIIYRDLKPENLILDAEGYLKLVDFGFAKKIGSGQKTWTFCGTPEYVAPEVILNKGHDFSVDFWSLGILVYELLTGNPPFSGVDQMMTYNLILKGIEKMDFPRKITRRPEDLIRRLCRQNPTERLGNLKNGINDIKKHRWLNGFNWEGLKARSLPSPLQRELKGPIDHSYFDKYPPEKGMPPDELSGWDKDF
T13 sequence (P51956 whole entry): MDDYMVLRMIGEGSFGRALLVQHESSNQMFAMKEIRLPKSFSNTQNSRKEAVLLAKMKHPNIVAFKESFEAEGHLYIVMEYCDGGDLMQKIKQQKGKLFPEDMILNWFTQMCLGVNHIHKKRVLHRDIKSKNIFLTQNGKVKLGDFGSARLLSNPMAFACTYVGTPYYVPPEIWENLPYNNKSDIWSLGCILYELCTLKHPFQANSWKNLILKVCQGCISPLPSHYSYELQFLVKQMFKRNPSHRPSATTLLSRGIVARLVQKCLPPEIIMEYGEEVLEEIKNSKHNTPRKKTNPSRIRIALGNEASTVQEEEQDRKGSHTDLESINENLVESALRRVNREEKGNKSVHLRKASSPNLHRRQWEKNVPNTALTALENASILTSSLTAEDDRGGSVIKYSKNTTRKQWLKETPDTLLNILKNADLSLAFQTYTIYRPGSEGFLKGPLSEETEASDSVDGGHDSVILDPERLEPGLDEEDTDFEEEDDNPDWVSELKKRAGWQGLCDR
T29 sequence (Q15139 whole entry): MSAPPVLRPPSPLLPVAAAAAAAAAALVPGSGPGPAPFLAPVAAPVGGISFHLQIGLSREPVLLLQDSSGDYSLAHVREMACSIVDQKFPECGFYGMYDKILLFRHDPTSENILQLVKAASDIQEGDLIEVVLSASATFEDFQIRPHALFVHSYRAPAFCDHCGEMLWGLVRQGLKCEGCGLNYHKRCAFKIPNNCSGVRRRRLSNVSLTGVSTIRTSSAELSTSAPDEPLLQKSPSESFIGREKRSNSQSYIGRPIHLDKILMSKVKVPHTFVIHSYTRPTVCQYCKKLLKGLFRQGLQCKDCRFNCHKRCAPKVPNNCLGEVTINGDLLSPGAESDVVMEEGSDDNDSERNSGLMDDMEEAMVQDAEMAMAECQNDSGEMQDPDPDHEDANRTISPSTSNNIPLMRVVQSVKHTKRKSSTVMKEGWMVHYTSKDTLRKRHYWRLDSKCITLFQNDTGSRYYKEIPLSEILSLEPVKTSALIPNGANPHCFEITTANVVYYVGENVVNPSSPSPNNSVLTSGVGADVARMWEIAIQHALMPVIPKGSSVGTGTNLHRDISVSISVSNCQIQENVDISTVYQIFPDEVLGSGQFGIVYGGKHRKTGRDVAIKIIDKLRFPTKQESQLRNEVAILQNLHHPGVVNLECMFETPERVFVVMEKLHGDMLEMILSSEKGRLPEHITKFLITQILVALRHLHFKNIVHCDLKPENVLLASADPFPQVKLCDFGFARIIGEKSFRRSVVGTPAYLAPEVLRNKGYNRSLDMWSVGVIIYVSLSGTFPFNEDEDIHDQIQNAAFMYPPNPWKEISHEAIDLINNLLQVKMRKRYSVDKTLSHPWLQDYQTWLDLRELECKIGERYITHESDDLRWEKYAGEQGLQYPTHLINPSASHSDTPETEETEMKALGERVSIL
T34 sequence (P11309 whole entry): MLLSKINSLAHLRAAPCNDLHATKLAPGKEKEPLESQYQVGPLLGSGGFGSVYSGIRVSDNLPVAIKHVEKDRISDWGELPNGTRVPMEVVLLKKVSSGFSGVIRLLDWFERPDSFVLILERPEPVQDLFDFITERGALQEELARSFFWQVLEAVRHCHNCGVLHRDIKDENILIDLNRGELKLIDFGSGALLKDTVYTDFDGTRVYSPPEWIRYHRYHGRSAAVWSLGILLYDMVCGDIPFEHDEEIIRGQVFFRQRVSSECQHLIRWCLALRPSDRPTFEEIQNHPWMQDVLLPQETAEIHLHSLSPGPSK
T16 sequence (Q9UBS0 whole entry): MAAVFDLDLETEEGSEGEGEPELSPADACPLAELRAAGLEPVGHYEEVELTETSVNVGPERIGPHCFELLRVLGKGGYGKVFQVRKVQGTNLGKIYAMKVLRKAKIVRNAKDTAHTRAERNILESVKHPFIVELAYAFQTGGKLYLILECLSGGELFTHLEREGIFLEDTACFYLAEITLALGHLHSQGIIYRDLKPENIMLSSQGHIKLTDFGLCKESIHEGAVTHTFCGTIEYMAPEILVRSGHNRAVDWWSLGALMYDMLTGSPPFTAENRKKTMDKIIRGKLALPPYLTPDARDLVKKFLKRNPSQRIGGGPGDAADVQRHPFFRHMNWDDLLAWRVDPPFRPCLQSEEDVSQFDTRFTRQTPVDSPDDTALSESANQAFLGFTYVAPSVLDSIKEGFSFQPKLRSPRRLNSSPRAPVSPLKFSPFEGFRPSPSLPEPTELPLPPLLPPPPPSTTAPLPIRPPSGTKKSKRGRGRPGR
T7 sequence (P32298 whole entry): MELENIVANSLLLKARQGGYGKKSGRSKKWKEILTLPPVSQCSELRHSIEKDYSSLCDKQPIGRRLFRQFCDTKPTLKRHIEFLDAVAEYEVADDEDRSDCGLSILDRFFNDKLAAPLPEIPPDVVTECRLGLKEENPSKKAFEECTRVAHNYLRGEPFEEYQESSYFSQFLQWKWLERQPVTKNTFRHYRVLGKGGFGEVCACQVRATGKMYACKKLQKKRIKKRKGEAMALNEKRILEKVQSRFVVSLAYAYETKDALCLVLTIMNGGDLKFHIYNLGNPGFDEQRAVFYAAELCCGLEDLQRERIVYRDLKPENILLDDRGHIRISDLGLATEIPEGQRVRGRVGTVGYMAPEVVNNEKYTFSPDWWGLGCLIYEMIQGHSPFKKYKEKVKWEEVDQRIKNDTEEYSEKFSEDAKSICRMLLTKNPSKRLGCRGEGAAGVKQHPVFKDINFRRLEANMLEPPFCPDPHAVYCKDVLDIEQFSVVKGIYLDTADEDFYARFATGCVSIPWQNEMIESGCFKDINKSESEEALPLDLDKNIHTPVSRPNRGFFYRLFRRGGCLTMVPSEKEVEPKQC
T23 sequence (Q14164 whole entry): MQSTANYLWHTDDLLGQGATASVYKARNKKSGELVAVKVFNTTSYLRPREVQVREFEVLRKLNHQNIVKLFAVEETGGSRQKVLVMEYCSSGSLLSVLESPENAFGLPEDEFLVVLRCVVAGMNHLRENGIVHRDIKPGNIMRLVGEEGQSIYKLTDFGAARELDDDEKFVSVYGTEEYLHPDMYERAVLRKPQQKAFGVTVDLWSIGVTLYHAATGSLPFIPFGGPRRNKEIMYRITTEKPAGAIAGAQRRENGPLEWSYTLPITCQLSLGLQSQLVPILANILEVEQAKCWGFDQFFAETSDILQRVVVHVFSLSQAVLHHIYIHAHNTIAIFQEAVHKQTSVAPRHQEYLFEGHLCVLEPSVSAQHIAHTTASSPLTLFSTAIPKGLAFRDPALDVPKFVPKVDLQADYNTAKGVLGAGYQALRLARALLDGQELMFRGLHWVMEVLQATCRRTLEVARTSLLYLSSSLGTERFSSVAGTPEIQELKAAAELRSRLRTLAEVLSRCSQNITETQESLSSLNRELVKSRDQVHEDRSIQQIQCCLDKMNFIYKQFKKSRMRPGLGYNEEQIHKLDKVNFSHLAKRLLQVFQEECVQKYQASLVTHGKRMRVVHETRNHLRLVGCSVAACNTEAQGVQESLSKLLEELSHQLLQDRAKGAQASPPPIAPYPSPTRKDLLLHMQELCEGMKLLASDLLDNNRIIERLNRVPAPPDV
T3 sequence (P07947 whole entry): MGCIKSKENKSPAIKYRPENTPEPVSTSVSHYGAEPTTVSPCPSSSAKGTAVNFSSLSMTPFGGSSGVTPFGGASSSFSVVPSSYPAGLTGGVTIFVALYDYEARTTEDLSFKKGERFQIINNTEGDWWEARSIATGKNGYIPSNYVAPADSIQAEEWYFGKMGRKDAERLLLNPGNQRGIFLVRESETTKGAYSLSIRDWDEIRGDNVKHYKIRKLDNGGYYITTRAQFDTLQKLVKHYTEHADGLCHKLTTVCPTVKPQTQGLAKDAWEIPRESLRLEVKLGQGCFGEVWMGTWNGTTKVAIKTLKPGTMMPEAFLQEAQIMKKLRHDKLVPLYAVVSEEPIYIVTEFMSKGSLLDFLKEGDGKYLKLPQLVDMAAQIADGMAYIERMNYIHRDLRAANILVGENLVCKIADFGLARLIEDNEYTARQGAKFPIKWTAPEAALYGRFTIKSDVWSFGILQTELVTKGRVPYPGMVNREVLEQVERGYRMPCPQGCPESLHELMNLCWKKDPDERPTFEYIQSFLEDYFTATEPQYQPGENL

With `Cc1ccc(Nc2ncc3c(n2)N(C)C(=O)N(c2cc(C(=O)N[C@H](C(=O)N4CCC[C@H]4C(=O)NC(C)(C)C(=O)N[C@@H](CC(C)C)C(=O)N(C)C)C(C)C)ccc2C)C3)cn1` [7a, (S)-N-(1-(((S)-1-(dimethylamino)-4-methyl-1-oxopentan-2-yl)amino)-2-methyl-1-oxopropan-2-yl)-1-((4-methyl-3-(1-methyl-7-((6-methylpyridin-3-yl)amino)-2-oxo-1,4-dihydropyrimido[4,5-d]pyrimidin-3(2H)-yl)benzoyl)-L-valyl)pyrrolidine-2-carboxamide] (X1-VP[Aib]L-NMe2) the inhibition at 1 µM (Fgr) was 80%, the inhibition at 1 µM (EPHB3) was 8% and the inhibition at 1 µM (YES/YES1) was 62%. It also gave an inhibition at 1 µM (TLK2) of 0%, an inhibition at 1 µM (CDK19/cyclin C) of 0% and an inhibition at 1 µM (JNK3) of 1%. The inhibition at 1 µM (GRK4) was 1%, the inhibition at 1 µM (CK1a1) was 0% and the inhibition at 1 µM (NEK7) was 2%. For the same compound, the inhibition at 1 µM (c-Kit) was 27%, the inhibition at 1 µM (CK1g3) was 0% and the inhibition at 1 µM (KSR1) was 2%. It also gave an inhibition at 1 µM (NEK3) of 0%, an inhibition at 1 µM (STK32C/YANK3) of 2% and an inhibition at 1 µM (SNARK/NUAK2) of 6%. The inhibition at 1 µM (p70S6Kb/RPS6KB2) was 0%, the inhibition at 1 µM (BRSK2) was 8% and the inhibition at 1 µM (CAMK4) was 0%. It also gave an inhibition at 1 µM (CDC7/DBF4) of 0%, an inhibition at 1 µM (MEKK3) of 11% and an inhibition at 1 µM (ROCK1) of 13%. For the same compound, the inhibition at 1 µM (DAPK2) was 1%, the inhibition at 1 µM (IKKe/IKBKE) was 3% and the inhibition at 1 µM (CAMKK2) was 10%. It also gave an inhibition at 1 µM (MNK2) of 1%, an inhibition at 1 µM (ALK3/BMPR1A) of 3% and an inhibition at 1 µM (CDK1/cyclin E) of 0%. It also gave an inhibition at 1 µM (LKB1) of 0%, an inhibition at 1 µM (PKCmu/PRKD1) of 0% and an inhibition at 1 µM (DDR1) of 80%. It also gave an inhibition at 1 µM (PLK4/SAK) of 5%, an inhibition at 1 µM (PIM2) of 0% and an inhibition at 1 µM (MYLK4) of 8%. For the same compound, the inhibition at 1 µM (PIM1) was 2%, the inhibition at 1 µM (PKG2/PRKG2) was 11% and the inhibition at 1 µM (MKK6) was 8%. For the same compound, the inhibition at 1 µM (CDK16/cyclin Y (PCTAIRE)) was 6%, the inhibition at 1 µM (PKG1b) was 0% and the inhibition at 1 µM (IRR/INSRR) was 5%. The inhibition at 1 µM (AXL) was 0%, the inhibition at 1 µM (MSK2/RPS6KA4) was 9% and the inhibition at 1 µM (GSK3a) was 10%.
